Source: ChEMBL document CHEMBL2062415, “Steroids from Commiphora mukul display antiproliferative effect against human prostate cancer PC3 cells via induction of apoptosis” (Bioorg Med Chem Lett, 2012)
The source made the active and inactive calls. No cut-off for these calls is given here.

How the values were obtained:
K562 [1] = experiment: Cytotoxicity against human K562 cells after 24 hrs by MTT assay; type: functional, cell-based; settings: K562, 24 h
MCF7 [2] = experiment: Cytotoxicity against human MCF7 cells assessed as cell viability at 10 uM after 24 hrs by MTT assay; type: functional; settings: MCF7, 24 h, read-out: Activity
PC-3 [3] = experiment: Induction of apoptosis in human PC3 cells assessed as early apoptotic cells at 5 uM after 48 hrs by annexinV/propidium iodide staining-based FITC analysis relative to control; type: functional
PC-3 [4] = experiment: Induction of apoptosis in human PC3 cells assessed as early apoptotic cells at 10 uM after 48 hrs by annexinV/propidium iodide staining-based FITC analysis relative to control; type: functional
PC-3 [5] = experiment: Induction of apoptosis in human PC3 cells assessed as late apoptotic cells at 10 uM after 48 hrs by annexinV/propidium iodide staining-based FITC analysis relative to control; type: functional
PC-3 [6] = experiment: Induction of apoptosis in human PC3 cells assessed as necrotic cells at 10 uM after 48 hrs by annexinV/propidium iodide staining-based FITC analysis relative to control; type: functional
PC-3 [7] = experiment: Induction of apoptosis in human PC3 cells assessed as early apoptotic cells at 20 uM after 48 hrs by annexinV/propidium iodide staining-based FITC analysis relative to control; type: functional
PC-3 [8] = experiment: Induction of apoptosis in human PC3 cells assessed as late apoptotic cells at 20 uM after 48 hrs by annexinV/propidium iodide staining-based FITC analysis relative to control; type: functional
DU-145 [9] = experiment: Induction of apoptosis in human DU145 cells assessed as early apoptotic cells at 20 uM after 48 hrs by annexinV/propidium iodide staining-based FITC analysis (reference value: 2.34%); type: functional
DU-145 [10] = experiment: Induction of apoptosis in human DU145 cells assessed as necrotic cells at 20 uM after 48 hrs by annexinV/propidium iodide staining-based FITC analysis (reference value: 0.35%); type: functional
DU-145 [11] = experiment: Induction of apoptosis in human DU145 cells assessed as early apoptotic cells at 40 uM after 48 hrs by annexinV/propidium iodide staining-based FITC analysis (reference value: 2.34%); type: functional
DU-145 [12] = experiment: Induction of apoptosis in human DU145 cells assessed as late apoptotic cells at 40 uM after 48 hrs by annexinV/propidium iodide staining-based FITC analysis (reference value: 2.78%); type: functional
MCF7 [13] = experiment: Induction of apoptosis in human MCF7 cells assessed as necrotic cells at 20 uM after 48 hrs by annexinV/propidium iodide staining-based FITC analysis (reference value: 8.28%); type: functional
K562 [14] = experiment: Induction of apoptosis in human K562 cells assessed as necrotic cells at 1 uM after 48 hrs by annexinV/propidium iodide staining-based FITC analysis (reference value: 1.19%); type: functional
K562 [15] = experiment: Induction of apoptosis in human K562 cells assessed as early apoptotic cells at 10 uM after 48 hrs by annexinV/propidium iodide staining-based FITC analysis (reference value: 2.08%); type: functional
K562 [16] = experiment: Induction of apoptosis in human K562 cells assessed as late apoptotic cells at 10 uM after 48 hrs by annexinV/propidium iodide staining-based FITC analysis (reference value: 2.55%); type: functional
K562 [17] = experiment: Induction of apoptosis in human K562 cells assessed as necrotic cells at 10 uM after 48 hrs by annexinV/propidium iodide staining-based FITC analysis (reference value: 1.19%); type: functional
PC-3 [18] = experiment: Cell cycle arrest in human PC3 cells assessed as accumulation at G0/G1 phase at 5 uM after 48 hrs by propidium iodide staining-based flow cytometric analysis relative to control; type: functional
PC-3 [19] = experiment: Cell cycle arrest in human PC3 cells assessed as accumulation at S phase at 5 uM after 48 hrs by propidium iodide staining-based flow cytometric analysis relative to control; type: functional
PC-3 [20] = experiment: Cell cycle arrest in human PC3 cells assessed as accumulation at G2/M phase at 5 uM after 48 hrs by propidium iodide staining-based flow cytometric analysis relative to control; type: functional
DU-145 [21] = experiment: Induction of apoptosis in human DU145 cells assessed as accumulation at G0/G1 phase at 10 uM after 48 hrs by propidium iodide staining-based flow cytometric analysis (reference value: 72.11%); type: functional
DU-145 [22] = experiment: Induction of apoptosis in human DU145 cells assessed as accumulation at S phase at 10 uM after 48 hrs by propidium iodide staining-based flow cytometric analysis (reference value: 11.48%); type: functional
DU-145 [23] = experiment: Induction of apoptosis in human DU145 cells assessed as accumulation at G2/M phase at 10 uM after 48 hrs by propidium iodide staining-based flow cytometric analysis (reference value: 16.14%); type: functional
DU-145 [24] = experiment: Induction of apoptosis in human DU145 cells assessed as accumulation at G0/G1 phase at 40 uM after 48 hrs by propidium iodide staining-based flow cytometric analysis (reference value: 72.11%); type: functional
MCF7 [25] = experiment: Induction of apoptosis in human MCF7 cells assessed as accumulation at G0/G1 phase at 10 uM after 48 hrs by propidium iodide staining-based flow cytometric analysis (reference value: 67.46%); type: functional
MCF7 [26] = experiment: Induction of apoptosis in human MCF7 cells assessed as accumulation at G0/G1 phase at 20 uM after 48 hrs by propidium iodide staining-based flow cytometric analysis (reference value: 67.46%); type: functional
MCF7 [27] = experiment: Induction of apoptosis in human MCF7 cells assessed as accumulation at S phase at 20 uM after 48 hrs by propidium iodide staining-based flow cytometric analysis (reference value: 22.99%); type: functional
K562 [28] = experiment: Induction of apoptosis in human K562 cells assessed as accumulation at S phase at 1 uM after 48 hrs by propidium iodide staining-based flow cytometric analysis (reference value: 45.67%); type: functional
K562 [29] = experiment: Induction of apoptosis in human K562 cells assessed as accumulation at G2/M phase at 1 uM after 48 hrs by propidium iodide staining-based flow cytometric analysis (reference value: 15.72%); type: functional
K562 [30] = experiment: Induction of apoptosis in human K562 cells assessed as accumulation at G0/G1 phase at 5 uM after 48 hrs by propidium iodide staining-based flow cytometric analysis (reference value: 38.61%); type: functional
K562 [31] = experiment: Induction of apoptosis in human K562 cells assessed as accumulation at G2/M phase at 5 uM after 48 hrs by propidium iodide staining-based flow cytometric analysis (reference value: 15.72%); type: functional
K562 [32] = experiment: Induction of apoptosis in human K562 cells assessed as accumulation at G2/M phase at 10 uM after 48 hrs by propidium iodide staining-based flow cytometric analysis (reference value: 15.72%); type: functional
PC-3 [33] = experiment: Increase in Bax protein level in human PC3 cells after 48 hrs by Western blot analysis; type: functional, cell-based
PC-3 [34] = experiment: Decrease in Bcl-2 protein level in human PC3 cells at 5 uM after 48 hrs by Western blot analysis; type: functional, cell-based
PC-3 [35] = experiment: Induction of apoptosis in human PC3 cells assessed as cleavage of caspase 3 at 5 to 20 uM after 48 hrs by Western blot analysis; type: functional, cell-based
PC-3 [36] = experiment: Induction of apoptosis in human PC3 cells assessed as cleavage of caspase 9 at 5 to 20 uM after 48 hrs by Western blot analysis; type: functional, cell-based
PC-3 [37] = experiment: Induction of apoptosis in human PC3 cells assessed as increase in PARP cleavage product after 48 hrs by Western blot analysis; type: functional, cell-based

Question: How did the IC50 (K562 [1]) turn out when `CC[C@H](/C=C/[C@@H](C)[C@H]1CC[C@H]2[C@H]3[C@H]([C@H](O)C[C@]12C)[C@@]1(C)CC[C@H](O)CC1=C[C@H]3O)C(C)C` was run?
Answer: 5.21 µM

Question: What about the viability at 10 µM (MCF7 [2]) of the same compound?
Answer: 36%

Question: And the Activity (PC-3 [3])?
Answer: 1.05%

Question: And the Activity (PC-3 [4])?
Answer: 1.49%

Question: And the Activity (PC-3 [5])?
Answer: 37.79%

Question: What about the Activity (PC-3 [6]) of the same compound?
Answer: 2.09%

Question: And the Activity (PC-3 [7])?
Answer: 3.27%

Question: What about the Activity (PC-3 [8]) of the same compound?
Answer: 42.21%

Question: What about the Activity (DU-145 [9]) of the same compound?
Answer: 2.12%

Question: What about the Activity (DU-145 [10]) of the same compound?
Answer: 2.38%

Question: And the Activity (DU-145 [11])?
Answer: 3.13%

Question: And the Activity (DU-145 [12])?
Answer: 13.63%

Question: And the Activity (MCF7 [13])?
Answer: 4.8%

Question: And the Activity (K562 [14])?
Answer: 0.5%

Question: What about the Activity (K562 [15]) of the same compound?
Answer: 6.1%

Question: And the Activity (K562 [16])?
Answer: 2.62%

Question: And the Activity (K562 [17])?
Answer: 0.78%

Question: And the Activity (PC-3 [18])?
Answer: 59%

Question: What about the Activity (PC-3 [19]) of the same compound?
Answer: 26.9%

Question: And the Activity (PC-3 [20])?
Answer: 14.11%

Question: And the Activity (DU-145 [21])?
Answer: 65.66%

Question: What about the Activity (DU-145 [22]) of the same compound?
Answer: 12.94%

Question: And the Activity (DU-145 [23])?
Answer: 21.4%

Question: And the Activity (DU-145 [24])?
Answer: 46.47%

Question: And the Activity (MCF7 [25])?
Answer: 71.05%

Question: And the Activity (MCF7 [26])?
Answer: 55.93%

Question: And the Activity (MCF7 [27])?
Answer: 19.37%

Question: And the Activity (K562 [28])?
Answer: 45.77%

Question: What about the Activity (K562 [29]) of the same compound?
Answer: 13.08%

Question: And the Activity (K562 [30])?
Answer: 40.79%

Question: And the Activity (K562 [31])?
Answer: 13.71%

Question: What about the Activity (K562 [32]) of the same compound?
Answer: 12.11%

Question: And the Activity (PC-3 [33])?
Answer: Dose-dependent effect

Question: And the inhibition (PC-3 [34])?
Answer: Active

Question: What about the Activity (PC-3 [35]) of the same compound?
Answer: Active

Question: And the Activity (PC-3 [36])?
Answer: Active

Question: And the Activity (PC-3 [37])?
Answer: Dose-dependent effect
